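Assay format: 96-well plates, 48-hour exposure. Here, GI50 denotes the concentration required for 50% inhibition of growth. TGI marks complete inhibition of growth.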
Columns and labels:
Test in all cases: inhibition of tumour cell growth, NCI panel, 48 h
COLO 205 colon = system: COLO 205 colon
HCT-116 colon = system: HCT-116 colon
HL-60(TB) leukemia = system: HL-60(TB) leukemia
HOP-62 NSCLC = system: HOP-62 NSCLC
NCI-H23 lung = system: NCI-H23 lung
RXF 393 renal = system: RXF 393 renal
SF-268 CNS = system: SF-268 CNS
SK-MEL-28 melanoma = system: SK-MEL-28 melanoma
HT29 colon = system: HT29 colon
NCI/ADR-RES ovarian = system: NCI/ADR-RES ovarian

SMILES	TGI (COLO 205 colon)	TGI (HCT-116 colon)	TGI (HL-60(TB) leukemia)	TGI (HOP-62 NSCLC)	TGI (NCI-H23 lung)	TGI (RXF 393 renal)	TGI (SF-268 CNS)	TGI (SK-MEL-28 melanoma)	TGI (HT29 colon)	TGI (NCI/ADR-RES ovarian)	GI50 (COLO 205 colon)	GI50 (HCT-116 colon)	GI50 (HOP-62 NSCLC)	GI50 (HT29 colon)	GI50 (NCI-H23 lung)	GI50 (NCI/ADR-RES ovarian)	GI50 (RXF 393 renal)	GI50 (SF-268 CNS)	GI50 (SK-MEL-28 melanoma)	GI50 (HL-60(TB) leukemia)
Cc1cccc(C)c1NC(=O)CCc1nc(=S)[nH][nH]1	> 100 µM	> 100 µM	> 100 µM	> 100 µM	> 100 µM	> 100 µM	> 100 µM	> 100 µM												
CC(C)OP(=O)(OC(C)C)/C(N)=N/Nc1ccc([N+](=O)[O-])cc1	> 100 µM	> 100 µM	> 100 µM	> 100 µM	> 100 µM		> 100 µM	> 100 µM												
Cn1c(-c2ccc(/C=N/NC(=S)N/N=C/c3ccc(-c4c[n+]5ccsc5n4C)cc3)cc2)c[n+]2ccsc12	> 100 µM	> 100 µM	> 100 µM	> 100 µM			> 100 µM	> 100 µM	> 100 µM	> 100 µM										
Cc1c(NC(=S)NC(=O)c2ccc([N+](=O)[O-])cc2)c(=O)n(-c2ccccc2)n1C	> 100 µM	> 100 µM	> 100 µM	> 100 µM	> 100 µM	> 100 µM	> 100 µM	> 100 µM	> 100 µM											
N/N=C1\C(=O)N(c2ccc(Cl)cc2Cl)C(=O)C(=O)C1c1nc2ccccc2o1 (centres undefined)	> 100 µM	> 100 µM	> 100 µM	> 100 µM	> 100 µM		> 100 µM	> 100 µM	> 100 µM											
Cc1nc(Nc2cccnc2)sc1C(=O)/C=C/c1ccc(Cl)cc1	6.47 µM	5.03 µM		7.6 µM	40.8 µM	5.46 µM	> 100 µM	14.7 µM	9.43 µM	11.1 µM	2530 nM	1850 nM	2560 nM	2850 nM	3430 nM	3.03 µM	2430 nM	4340 nM	3040 nM	
CC1CCSC(N(C(=O)N(C)c2ccccc2)c2ccccc2)=N1 (centres undefined)	> 100 µM	> 100 µM	> 100 µM	> 100 µM	> 100 µM	> 100 µM	> 100 µM	> 100 µM	> 100 µM											
COC(=O)CC(NC(=O)OCc1ccccc1)C(C(=O)OCc1ccccc1)C(C)(OC)OC (centres undefined)	34.1 µM	> 100 µM	90.9 µM	> 100 µM	74.7 µM	96.9 µM	> 100 µM	> 100 µM	> 100 µM											
CSCCCNC(=O)c1ccc2c(c1)/C(=C/c1[nH]c(C)cc1C)C(=O)N2	> 100 µM	> 100 µM	> 100 µM	> 100 µM	> 100 µM	37.1 µM	> 100 µM	> 100 µM	> 100 µM		943 nM	548 nM	286 nM	4950 nM	1590 nM		977 nM	1980 nM	1650 nM	2540 nM
O=C1C=CC(=O)c2c(O)c(NCCOCCO)c(Cl)c(O)c21	4.8 µM	8.32 µM	> 100 µM	34.2 µM	3.51 µM	27.1 µM														
CC(=O)OCC(=O)[C@@]12OC(C)(C)O[C@@H]1C[C@H]1[C@@H]3CC(C=O)=C4C=C(OCCCl)CC[C@]4(C)[C@@]3(F)[C@@H](O)C[C@@]12C	34.9 µM	27.4 µM	97.1 µM	51.9 µM	42.2 µM	21.6 µM	> 100 µM	80.1 µM	36.8 µM											
COc1ccc(CCc2cc(OC)cc(OC)c2)cc1	> 60.5 µM	> 100 µM	> 84.5 µM	> 100 µM	> 100 µM	63.8 µM	> 100 µM	> 100 µM	47.9 µM											
O=C1/C(=C/c2ccccc2)CN(C(=O)CCN2CCCC2)C/C1=C\c1ccccc1	3.25 µM	0.674 µM	1.18 µM	16 µM	4.35 µM	5.24 µM	5.8 µM	3.38 µM	2.54 µM											
Cc1ccc(N=Nc2c(O)ccc3ccccc23)cc1	> 100 µM	> 100 µM		> 100 µM	> 100 µM	> 100 µM	> 100 µM	> 100 µM	> 100 µM	> 100 µM										
CC(C)CCCC(C)[C@H]1CCC2[C@@H]3CCC4Nc5c(cnn5-c5ccccc5)C[C@]4(C)C3CC[C@@]21C (some centres undefined)	42 µM	> 100 µM	> 100 µM	45.7 µM	> 100 µM	8.8 µM	> 100 µM		> 100 µM											
O=S(=O)(NCn1ccc2ccccc21)c1ccccc1	> 100 µM	> 100 µM	41 µM	> 100 µM	> 100 µM	> 100 µM	> 100 µM	> 100 µM	> 57.2 µM											
O=C(Nc1ccc(-c2nc(-c3cccc(OCCN4CCOCC4)c3)c(-c3ccnc(Br)c3)[nH]2)cc1)c1ccccc1		> 100 µM			8.78 µM	1.12 µM	> 100 µM	3.94 µM		> 100 µM		2580 nM			2470 nM	5.2 µM	309 nM	3820 nM	1500 nM	
O=c1ncccn1C1OC(CO)C(O)C1O (centres undefined)	> 100 µM	> 100 µM			> 100 µM	> 100 µM	> 100 µM	> 100 µM	> 100 µM											
O=C(O)CCNCCCCNCCC(=O)O	> 100 µM	> 100 µM	> 100 µM	> 100 µM	> 100 µM	> 100 µM	> 100 µM	> 100 µM	> 100 µM											
CCCCCCCCNCCC[C@@H](C)[C@H]1CC[C@H]2[C@@H]3[C@H](OCCCN)C[C@H]4C[C@H](OCCCN)CC[C@]4(C)[C@H]3C[C@H](OCCCN)[C@]12C	7.77 µM	2.61 µM		7.16 µM	5.4 µM	16.4 µM	3.7 µM	2.78 µM	7.59 µM	5.27 µM	2600 nM	870 nM	1530 nM	1710 nM	1810 nM	1.93 µM	2220 nM	1500 nM	776 nM	
C=CCO/N=C(\OC(=O)c1ccc([N+](=O)[O-])cc1)c1ccccc1	> 100 µM			> 100 µM	> 100 µM		> 100 µM	> 100 µM	> 100 µM											
COc1ccc(C(=O)C(CC2C(=O)NC(=O)NC2=O)c2ccc(OC)cc2)cc1 (centres undefined)	> 100 µM	> 100 µM	> 100 µM	> 100 µM	> 100 µM	> 100 µM	> 100 µM	> 100 µM	> 100 µM											

— PubChem BioAssay (NCI)
